Assay results published in ChEMBL document CHEMBL4806968, “Hipk inhibitors and methods of use thereof” (2020).

Columns and labels:
[1] = target: Inhibitor of nuclear factor kappa-B kinase subunit epsilon (Homo sapiens) (UniProt Q14164); experiment: Inhibition of IKK-epsilon (unknown origin) at 0.5 uM relative to control
[2] = target: Serine/threonine-protein kinase MARK1 (Homo sapiens) (UniProt Q9P0L2); experiment: Inhibition of MARK1 (unknown origin) at 0.5 uM relative to control
Homo sapiens = species on record: Homo sapiens; experiment: Inhibition of LYNA (unknown origin) at 0.5 uM relative to control
[3] = target: Serine/threonine-protein kinase PLK4 (Homo sapiens) (UniProt O00444); experiment: Inhibition of PLK4 (unknown origin) at 0.5 uM relative to control
[4] = target: Mitogen-activated protein kinase kinase kinase 9 (Homo sapiens) (UniProt P80192); experiment: Inhibition of MLK1 (unknown origin) at 0.5 uM relative to control
[5] = target: Non-receptor tyrosine-protein kinase TNK1 (Homo sapiens) (UniProt Q13470); experiment: Inhibition of TNK1 (unknown origin) at 0.5 uM relative to control
[6] = target: Fibroblast growth factor receptor 2 (Homo sapiens) (UniProt P21802); experiment: Inhibition of FGFR2 (unknown origin) at 0.5 uM relative to control
Chain of Fibroblast growth factor receptor 2 (Homo sapiens) (P21802 22-821 limits assumed): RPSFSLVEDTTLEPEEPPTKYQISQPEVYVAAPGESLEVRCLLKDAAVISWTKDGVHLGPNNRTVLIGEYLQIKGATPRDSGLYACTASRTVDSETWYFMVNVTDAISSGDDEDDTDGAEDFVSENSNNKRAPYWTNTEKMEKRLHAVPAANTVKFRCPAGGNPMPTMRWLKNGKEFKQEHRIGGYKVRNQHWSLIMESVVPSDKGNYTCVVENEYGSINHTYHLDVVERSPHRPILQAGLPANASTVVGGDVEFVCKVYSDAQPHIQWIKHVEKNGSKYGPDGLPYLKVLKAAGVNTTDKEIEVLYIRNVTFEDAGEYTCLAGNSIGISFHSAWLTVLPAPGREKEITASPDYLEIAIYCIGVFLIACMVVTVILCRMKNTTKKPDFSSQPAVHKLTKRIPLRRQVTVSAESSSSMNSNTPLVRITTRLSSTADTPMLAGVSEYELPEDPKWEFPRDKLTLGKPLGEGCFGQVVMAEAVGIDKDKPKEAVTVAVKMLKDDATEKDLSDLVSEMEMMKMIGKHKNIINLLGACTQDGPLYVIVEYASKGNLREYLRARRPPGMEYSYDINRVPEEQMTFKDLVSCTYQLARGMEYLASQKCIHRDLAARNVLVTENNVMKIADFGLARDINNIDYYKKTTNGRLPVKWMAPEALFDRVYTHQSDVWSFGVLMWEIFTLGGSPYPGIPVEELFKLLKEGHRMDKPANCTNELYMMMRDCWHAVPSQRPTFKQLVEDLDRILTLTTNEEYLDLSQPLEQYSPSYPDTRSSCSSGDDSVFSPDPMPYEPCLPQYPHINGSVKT

Chain of Mitogen-activated protein kinase kinase kinase 9 (Homo sapiens) (P80192 whole entry, looked up): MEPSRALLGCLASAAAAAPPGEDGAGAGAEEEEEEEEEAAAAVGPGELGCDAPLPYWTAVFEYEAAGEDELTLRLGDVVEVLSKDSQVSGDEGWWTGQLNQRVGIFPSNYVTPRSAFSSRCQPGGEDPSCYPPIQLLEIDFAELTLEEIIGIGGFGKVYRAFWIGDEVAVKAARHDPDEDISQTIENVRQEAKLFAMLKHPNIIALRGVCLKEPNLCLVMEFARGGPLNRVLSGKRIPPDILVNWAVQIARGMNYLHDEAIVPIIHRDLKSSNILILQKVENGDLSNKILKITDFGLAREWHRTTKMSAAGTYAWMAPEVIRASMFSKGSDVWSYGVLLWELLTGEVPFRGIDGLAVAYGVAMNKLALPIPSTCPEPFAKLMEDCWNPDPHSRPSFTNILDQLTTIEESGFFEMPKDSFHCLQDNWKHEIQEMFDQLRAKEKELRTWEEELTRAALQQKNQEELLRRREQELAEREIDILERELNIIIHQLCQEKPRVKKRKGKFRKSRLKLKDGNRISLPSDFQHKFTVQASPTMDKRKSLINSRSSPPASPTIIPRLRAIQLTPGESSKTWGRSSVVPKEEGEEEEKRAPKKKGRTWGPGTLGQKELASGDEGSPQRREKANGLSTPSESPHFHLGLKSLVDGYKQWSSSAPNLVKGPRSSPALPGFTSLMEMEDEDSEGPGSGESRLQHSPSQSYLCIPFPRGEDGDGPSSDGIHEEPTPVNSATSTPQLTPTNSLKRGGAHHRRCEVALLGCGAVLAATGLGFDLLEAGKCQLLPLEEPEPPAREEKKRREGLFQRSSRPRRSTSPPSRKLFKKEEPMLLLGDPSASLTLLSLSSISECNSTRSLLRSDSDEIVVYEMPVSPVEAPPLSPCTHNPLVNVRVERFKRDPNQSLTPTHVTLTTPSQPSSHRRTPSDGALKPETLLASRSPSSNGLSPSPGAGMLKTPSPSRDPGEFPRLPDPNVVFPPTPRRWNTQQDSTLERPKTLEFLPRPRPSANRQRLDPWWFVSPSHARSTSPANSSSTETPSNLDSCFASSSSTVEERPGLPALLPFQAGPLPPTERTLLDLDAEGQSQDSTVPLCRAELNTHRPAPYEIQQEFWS
Chain of Inhibitor of nuclear factor kappa-B kinase subunit epsilon (Homo sapiens) (Q14164 whole entry): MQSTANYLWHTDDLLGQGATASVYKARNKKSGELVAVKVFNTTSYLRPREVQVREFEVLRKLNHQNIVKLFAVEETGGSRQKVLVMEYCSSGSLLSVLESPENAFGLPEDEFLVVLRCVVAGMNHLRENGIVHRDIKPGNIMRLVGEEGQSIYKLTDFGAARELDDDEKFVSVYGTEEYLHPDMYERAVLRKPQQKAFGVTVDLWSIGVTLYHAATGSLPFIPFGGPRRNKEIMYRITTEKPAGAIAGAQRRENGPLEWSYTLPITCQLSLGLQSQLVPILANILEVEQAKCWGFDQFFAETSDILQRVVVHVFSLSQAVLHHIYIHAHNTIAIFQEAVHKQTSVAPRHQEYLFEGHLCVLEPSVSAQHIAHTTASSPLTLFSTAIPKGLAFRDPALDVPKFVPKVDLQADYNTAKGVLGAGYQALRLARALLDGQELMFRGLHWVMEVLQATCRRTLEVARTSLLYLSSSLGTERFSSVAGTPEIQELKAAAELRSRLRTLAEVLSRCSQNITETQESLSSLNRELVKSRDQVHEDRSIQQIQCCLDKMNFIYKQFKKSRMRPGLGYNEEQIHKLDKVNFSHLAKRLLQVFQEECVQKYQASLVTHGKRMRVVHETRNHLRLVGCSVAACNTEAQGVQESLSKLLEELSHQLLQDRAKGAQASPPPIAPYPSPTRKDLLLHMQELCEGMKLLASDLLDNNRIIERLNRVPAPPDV
Chain of Serine/threonine-protein kinase PLK4 (Homo sapiens) (O00444 whole entry): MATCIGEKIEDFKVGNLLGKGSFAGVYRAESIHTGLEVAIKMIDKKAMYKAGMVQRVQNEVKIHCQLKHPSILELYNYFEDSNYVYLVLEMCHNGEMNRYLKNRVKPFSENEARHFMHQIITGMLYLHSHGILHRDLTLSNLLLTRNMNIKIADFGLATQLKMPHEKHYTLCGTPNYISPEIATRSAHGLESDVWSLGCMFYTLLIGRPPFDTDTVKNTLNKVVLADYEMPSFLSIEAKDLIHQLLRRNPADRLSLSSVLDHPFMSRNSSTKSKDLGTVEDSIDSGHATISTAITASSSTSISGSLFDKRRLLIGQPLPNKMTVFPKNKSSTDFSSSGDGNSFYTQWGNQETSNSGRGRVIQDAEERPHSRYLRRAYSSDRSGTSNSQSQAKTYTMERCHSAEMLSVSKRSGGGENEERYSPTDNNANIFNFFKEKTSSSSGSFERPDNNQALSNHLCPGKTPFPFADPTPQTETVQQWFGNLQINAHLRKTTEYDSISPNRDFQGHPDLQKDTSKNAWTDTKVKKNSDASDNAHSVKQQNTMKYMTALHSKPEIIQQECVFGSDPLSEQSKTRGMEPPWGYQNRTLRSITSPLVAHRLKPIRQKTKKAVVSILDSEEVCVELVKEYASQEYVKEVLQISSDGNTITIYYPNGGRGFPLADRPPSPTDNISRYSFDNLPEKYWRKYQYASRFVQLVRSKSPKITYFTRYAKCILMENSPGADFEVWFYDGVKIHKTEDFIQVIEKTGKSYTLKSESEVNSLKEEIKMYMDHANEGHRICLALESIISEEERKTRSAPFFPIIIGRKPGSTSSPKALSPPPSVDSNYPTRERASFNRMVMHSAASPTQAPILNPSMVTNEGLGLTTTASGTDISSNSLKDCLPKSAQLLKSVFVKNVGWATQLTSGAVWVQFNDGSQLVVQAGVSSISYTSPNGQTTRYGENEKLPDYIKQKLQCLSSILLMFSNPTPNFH
Chain of Serine/threonine-protein kinase MARK1 (Homo sapiens) (Q9P0L2 whole entry, looked up): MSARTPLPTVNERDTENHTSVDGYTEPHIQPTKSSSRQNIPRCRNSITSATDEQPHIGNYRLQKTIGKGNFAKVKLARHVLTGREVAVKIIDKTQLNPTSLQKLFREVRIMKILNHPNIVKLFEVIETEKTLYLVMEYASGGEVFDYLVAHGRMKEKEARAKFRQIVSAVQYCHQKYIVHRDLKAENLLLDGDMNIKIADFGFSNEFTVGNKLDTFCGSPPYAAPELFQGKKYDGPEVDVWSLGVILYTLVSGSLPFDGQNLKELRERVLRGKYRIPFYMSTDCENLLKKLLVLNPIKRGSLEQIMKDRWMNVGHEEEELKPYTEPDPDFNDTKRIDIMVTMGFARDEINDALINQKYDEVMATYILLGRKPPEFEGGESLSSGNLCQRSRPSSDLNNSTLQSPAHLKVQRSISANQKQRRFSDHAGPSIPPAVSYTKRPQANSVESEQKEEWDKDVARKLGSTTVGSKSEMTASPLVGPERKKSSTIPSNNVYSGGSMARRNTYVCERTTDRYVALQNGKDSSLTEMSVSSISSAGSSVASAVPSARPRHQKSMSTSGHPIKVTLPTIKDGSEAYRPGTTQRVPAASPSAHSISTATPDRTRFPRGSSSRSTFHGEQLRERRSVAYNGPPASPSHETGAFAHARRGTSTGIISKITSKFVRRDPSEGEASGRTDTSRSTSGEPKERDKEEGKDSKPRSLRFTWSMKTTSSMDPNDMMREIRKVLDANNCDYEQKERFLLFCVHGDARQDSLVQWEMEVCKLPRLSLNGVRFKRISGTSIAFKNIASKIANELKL
Chain of Non-receptor tyrosine-protein kinase TNK1 (Homo sapiens) (Q13470 whole entry): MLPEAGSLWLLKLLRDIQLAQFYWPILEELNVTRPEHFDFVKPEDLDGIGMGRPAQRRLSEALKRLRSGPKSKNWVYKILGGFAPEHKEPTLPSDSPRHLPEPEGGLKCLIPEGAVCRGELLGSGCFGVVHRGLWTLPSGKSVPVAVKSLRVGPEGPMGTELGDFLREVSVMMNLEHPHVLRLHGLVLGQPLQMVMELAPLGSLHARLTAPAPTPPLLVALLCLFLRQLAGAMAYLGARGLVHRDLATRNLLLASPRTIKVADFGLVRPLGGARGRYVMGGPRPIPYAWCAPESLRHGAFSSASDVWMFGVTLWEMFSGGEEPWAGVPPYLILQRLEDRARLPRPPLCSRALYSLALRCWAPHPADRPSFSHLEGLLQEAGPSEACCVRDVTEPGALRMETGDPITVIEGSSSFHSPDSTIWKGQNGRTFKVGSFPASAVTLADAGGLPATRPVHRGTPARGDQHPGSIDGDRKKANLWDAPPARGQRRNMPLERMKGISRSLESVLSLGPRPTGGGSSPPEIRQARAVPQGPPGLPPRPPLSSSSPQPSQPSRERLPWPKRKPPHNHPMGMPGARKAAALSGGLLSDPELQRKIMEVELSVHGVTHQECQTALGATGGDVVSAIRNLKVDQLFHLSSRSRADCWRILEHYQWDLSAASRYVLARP

CNC(=O)c1cc(Oc2ccc(NC(=O)c3nc(SC)n(CCN(C)C)c3-c3ccc(F)cc3)cc2)ccn1
inhibition [1]: 34% | inhibition [2]: 44%

CNC(=O)c1cc(Oc2ccc(NC(=O)c3nc(SC)[nH]c3-c3ccc(F)cc3)cc2)ccn1
inhibition (Homo sapiens): 84%

CSc1nc(C(=O)Nc2ccc(Oc3cc4cnn(C)c4cc3Br)cc2)c(-c2ccc(F)cc2)o1
inhibition [3]: 14% | inhibition [4]: 28% | inhibition [5]: 23%

CNC(=O)c1cc(Oc2ccc(NC(=O)c3nc(S(C)(=O)=O)sc3-c3ccc(F)cc3)cc2)ccn1
inhibition [6]: 11%
